{"source": "patent US20140323476A1", "about": "“PEPTIDE DEFORMYLASE INHIBITORS” (priority 2011, published 2014)", "key": {"[1]": {"experiment": "Hydrolytic degradation rate of reconstituted lyophile", "assay_type": "physicochemical", "conditions": "reconstituted lyophile at 5 mg/mL"}, "pH solubility curve": {"experiment": "pH solubility curve", "assay_type": "physicochemical", "conditions": "thermodynamic from solid", "source_text": "The pH solubility curve can be seen in Table 5 below."}, "[2]": {"experiment": "Dissolution rate in water, turbidity and visual inspection", "assay_type": "physicochemical", "description": "[(2R)-2-(cyclopentyl methyl)-3-(2-{5-fluoro-6-[(9aS)-hexahydropyrazino[2,1-c][1,4]oxazin-8(1h)-yl]-2-methyl-4-pyrimidinyl}hydrazino)-3-oxopropyl]hydroxyformamide was triturated with a mortar and pestle. The resulting powder (20 g, 1.0 eq, basis) was charged to a 250 mL jacketed vessel. The vessel was equipped with an overhead stirrer which was set to 60 RPM. The jacket fluid was controlled to 23° C. A solution of purified water (125 mL) and methanesulphonic acid (4.0 g, 2.7 mL, 1.0 eq) was prepared. The aqueous methanesulphonic acid solution was added to the vessel containing [(2R)-2-(cyclopentyl methyl)-3-(2-{5-fluoro-6-[(9aS)-hexahydropyrazino[2,1-c][1,4]oxazin-8(1h)-yl]-2-methyl-4-pyrimidinyl}hydrazino)-3-oxopropyl]hydroxyformamide. The resulting suspension was stirred continuously and monitored by turbidity and visual inspection. After 1 day, the turbidity and pH readings stabilized.\n[(2R)-2-(cyclopentyl methyl)-3-(2-{5-fluoro-6-[(9aS)-hexahydropyrazino[2,1-c][1,4]oxazin-8(1h)-yl]-2-methyl-4-pyrimidinyl}hydrazino)-3-oxopropyl]hydroxyformamide methanesulphonate was triturated with a mortar and pestle. The resulting powder (24 g, 1.0 eq) was charged to a similar 250 mL jacketed vessel. The vessel was equipped with an overhead stirrer which was set to 60 RPM. The jacket fluid was controlled to 23° C. Purified water (125 mL) was added to the vessel containing [(2R)-2-(cyclopentylmethyl)-3-(2-{5-fluoro-6-[(9aS)-hexahydropyrazino[2,1-c][1,4]oxazin-8(1h)-yl]-2-methyl-4-pyrimidinyl}hydrazino)-3-oxopropyl]hydroxyformamide methanesulphonate. The resulting suspension was stirred continuously and monitored by turbidity and visual inspection. A clear solution was observed visually and confirmed turbidimetrically at 3 minutes."}, "[3]": {"experiment": "Degradation rate on storage at forced conditions", "assay_type": "physicochemical", "conditions": "forced conditions: 50° C., ambient humidity"}, "[4]": {"experiment": "Adsorption of labile water versus relative humidity", "assay_type": "physicochemical"}, "[5]": {"system": "Staphylococcus aureus WCUH29", "experiment": "Antimicrobial activity assay (MIC)", "assay_type": "cell-based", "conditions": "median of all results obtained, panel run 6 times", "description": "(§1) Whole-cell antimicrobial activity was determined by broth microdilution using the Clinical and Laboratory Standards Institute (CLSI, formerly NCCLS) recommended methodology (NCCLS Document M7-A6, “Methods for Dilution Susceptibility Tests for Bacteria that Grow Aerobically—Approved Standard Sixth Edition”, 2003). Compounds were tested in serial two-fold dilutions ranging from 64 to 0.06 μg/mL. A panel of 12 strains was evaluated in the assay. This panel consisted of the following laboratory strains: Staphylococcus aureus Oxford, Staphylococcus aureus WCUH29, Enterococcus faecalis I, Enterococcus faecalis 7, Haemophilus influenzae Q1, Haemophilus influenzae NEMC1, Moraxella catarrhalis 1502, Streptococcus pneumoniae 1629, Streptococcus pneumoniae N1387, Streptococcus pneumoniae Ery2, Escherichia coli 7623 (AcrABEFD+) and Escherichia coli 120 (AcrAB−). The minimum inhibitory concentration (MIC) was determined as the lowest concentration of compound that inhibited visible growth. A mirror reader was used to assist in determining the MIC endpoint."}, "Enterococcus faecalis I": {"system": "Enterococcus faecalis I", "experiment": "Antimicrobial activity assay (MIC)", "assay_type": "cell-based", "conditions": "median of all results obtained, panel run 6 times", "description": "as §1"}, "[6]": {"system": "Haemophilus influenzae Q1", "experiment": "Antimicrobial activity assay (MIC)", "assay_type": "cell-based", "conditions": "median of all results obtained, panel run 6 times", "description": "as §1"}, "[7]": {"system": "Staphylococcus aureus Oxford", "experiment": "Antimicrobial activity assay (MIC)", "assay_type": "cell-based", "conditions": "median of all results obtained, panel run 6 times", "description": "as §1"}, "[8]": {"system": "Streptococcus pneumoniae N1387", "experiment": "Antimicrobial activity assay (MIC)", "assay_type": "cell-based", "conditions": "median of all results obtained, panel run 6 times", "description": "as §1"}, "[9]": {"system": "Haemophilus influenzae NEMC1", "experiment": "Antimicrobial activity assay (MIC)", "assay_type": "cell-based", "conditions": "median of all results obtained, panel run 6 times", "description": "as §1"}, "[10]": {"system": "Streptococcus pneumoniae 1629", "experiment": "Antimicrobial activity assay (MIC)", "assay_type": "cell-based", "conditions": "median of all results obtained, panel run 6 times", "description": "as §1"}, "[11]": {"system": "Escherichia coli 120 (AcrAB−)", "experiment": "Antimicrobial activity assay (MIC)", "assay_type": "cell-based", "description": "as §1"}, "[12]": {"system": "Moraxella catarrhalis 1502", "experiment": "Antimicrobial activity assay (MIC)", "assay_type": "cell-based", "conditions": "median of all results obtained, panel run 6 times", "description": "as §1"}, "[13]": {"system": "Escherichia coli 7623 (AcrABEFD+)", "experiment": "Antimicrobial activity assay (MIC)", "assay_type": "cell-based", "conditions": "median of all results obtained, panel run 6 times", "description": "as §1"}, "[14]": {"system": "Streptococcus pneumoniae Ery2", "experiment": "Antimicrobial activity assay (MIC)", "assay_type": "cell-based", "conditions": "median of all results obtained, panel run 6 times", "description": "as §1"}, "Enterococcus faecalis 7": {"system": "Enterococcus faecalis 7", "experiment": "Antimicrobial activity assay (MIC)", "assay_type": "cell-based", "conditions": "median of all results obtained, panel run 6 times", "description": "as §1"}, "panel of 12 strains": {"system": "panel of 12 strains", "experiment": "Antimicrobial activity assay, broth microdilution, panel of 12 strains", "assay_type": "cell-based", "conditions": "compared with the examples from WO 03/101442", "description": "as §1"}}}
{"smiles": "Cc1nc(NNC(=O)[C@H](CC2CCCC2)CN(O)C=O)c(F)c(N2CCN3CCOC[C@@H]3C2)n1", "note": "[Example 1, [(2R)-2-(Cyclopentylmethyl)-3-(2-{5-fluoro-6-[(9aS)-hexahydropyrazino[2,1-c][1,4]oxazin-8(1H)-yl]-2-methyl-4-pyrimidinyl}hydrazino)-3-oxopropyl]hydroxyformamide]", "values": [{"measurement": "Degradation Rate % hydrolized/day", "setting": "[1]; storage temperature 5° C., listed as Free base", "value": 0.06, "unit": "% hydrolized/day"}, {"measurement": "Degradation Rate % hydrolized/day", "setting": "[1]; storage temperature 25° C., listed as Free base", "value": 0.53, "unit": "% hydrolized/day"}, {"measurement": "solubility", "setting": "pH solubility curve; 0.003M methanesulphonic acid, pH 4.86, aqueous buffer", "value": 1.93, "unit": "mg/mL"}, {"measurement": "solubility", "setting": "pH solubility curve; 0.01M methanesulphonic acid, pH 4.33, aqueous buffer", "value": 4.98, "unit": "mg/mL"}, {"measurement": "solubility", "setting": "pH solubility curve; 0.03M methanesulphonic acid, pH 3.98, aqueous buffer", "value": 13.9, "unit": "mg/mL"}, {"measurement": "solubility", "setting": "pH solubility curve; 0.05M methanesulphonic acid, pH 3.76, aqueous buffer", "value": 22, "unit": "mg/mL"}, {"measurement": "solubility", "setting": "pH solubility curve; 0.1M methanesulphonic acid, pH 3.57, aqueous buffer", "value": 41.7, "unit": "mg/mL"}, {"measurement": "solubility", "setting": "pH solubility curve; 0.3M methanesulphonic acid, pH 3.34, aqueous buffer", "value": 116, "unit": "mg/mL"}, {"measurement": "solubility", "setting": "pH solubility curve; 0.5M methanesulphonic acid, pH 3.39, aqueous buffer", "value": 193, "unit": "mg/mL"}, {"measurement": "solubility", "setting": "pH solubility curve; 1M methanesulphonic acid, pH 3.42, aqueous buffer", "value": 347, "unit": "mg/mL"}, {"measurement": "time observed without complete dissolution", "setting": "[2]; 20 g powder, 125 mL purified water with 1.0 eq methanesulphonic acid, 23° C., 60 RPM", "value": "over 7.1 days"}, {"measurement": "degradation rate", "setting": "[3]; listed as free base", "value": 1.7, "unit": "%/month"}]}
{"smiles": "Cc1nc(NNC(=O)[C@H](CC2CCCC2)CN(O)C=O)c(F)c(N2CCN3CCOC[C@@H]3C2)n1", "note": "[Example 6]", "values": [{"measurement": "relative humidity at which it deliquesces", "setting": "[4]", "value": 70, "unit": "% relative humidity"}, {"measurement": "labile water adsorbed reversibly", "setting": "[4]; up to 70% relative humidity", "value": "up to 0.4 % (wt/wt)"}, {"measurement": "Degradation Rate % hydrolized/day", "setting": "[1]; storage temperature 5° C., listed as Mesylate", "value": 0.01, "unit": "% hydrolized/day"}, {"measurement": "Degradation Rate % hydrolized/day", "setting": "[1]; storage temperature 25° C., listed as Mesylate", "value": 0.11, "unit": "% hydrolized/day"}, {"measurement": "solubility", "setting": "pH solubility curve; Purified Water, pH 3.2, equilibrium not reached", "value": "> 452", "unit": "mg/mL"}, {"measurement": "time to clear solution", "setting": "[2]; 24 g powder, 125 mL purified water, 23° C., 60 RPM", "value": 3, "unit": "min"}, {"measurement": "dissolution and solubility compared to the free base", "setting": "[2]; one equivalent of methanesulphonic acid and water, 160 mg/mL", "value": "faster dissolution and enhanced solubility"}, {"measurement": "degradation rate", "setting": "[3]; listed as mesylate", "value": 0.2, "unit": "%/month"}]}
{"smiles": "CS(=O)(=O)O.Cc1nc(NNC(=O)[C@H](CC2CCCC2)CN(O)C=O)c(F)c(N2CCN3CCOC[C@@H]3C2)n1", "note": "[Example 11, [(2R)-2-(Cyclopentylmethyl)-3-(2-{5-fluoro-6-[(9aS)-hexahydropyrazino[2,1-c][1,4]oxazin-8(1H)-yl]-2-methyl-4-pyrimidinyl}hydrazino)-3-oxopropyl]hydroxyl formamide methanesulfonate polymorphic Form 2]", "values": [{"measurement": "labile water adsorbed reversibly", "setting": "[4]; up to 95% relative humidity", "value": "up to 2 % (wt/wt)"}]}
{"smiles": "Cc1nc(NNC(=O)[C@H](CC2CCCC2)CN(O)C=O)c(F)c(N2CCN3CCOC[C@@H]3C2)n1", "note": "[Example 24, [(2R)-2-(Cyclopentylmethyl)-3-(2-{5-fluoro-6-[(9aS)-hexahydropyrazino[2,1-c][1,4]oxazin-8(1H)-yl]-2-methyl-4-pyrimidinyl}hydrazino)-3-oxopropyl]hydroxyformamide]", "values": [{"measurement": "MIC", "setting": "[5]", "value": 0.375, "unit": "µg/mL"}, {"measurement": "MIC", "setting": "Enterococcus faecalis I", "value": 48, "unit": "µg/mL"}, {"measurement": "MIC", "setting": "[6]", "value": 0.5, "unit": "µg/mL"}, {"measurement": "MIC", "setting": "[7]", "value": 2, "unit": "µg/mL"}, {"measurement": "MIC", "setting": "[8]", "value": 0.5, "unit": "µg/mL"}, {"measurement": "MIC", "setting": "[9]", "value": 1, "unit": "µg/mL"}, {"measurement": "MIC", "setting": "[10]", "value": 0.75, "unit": "µg/mL"}, {"measurement": "MIC", "setting": "[11]", "value": 0.188, "unit": "µg/mL"}, {"measurement": "MIC", "setting": "[12]", "value": 0.375, "unit": "µg/mL"}, {"measurement": "MIC", "setting": "[13]", "value": 16, "unit": "µg/mL"}, {"measurement": "MIC", "setting": "[14]", "value": 0.375, "unit": "µg/mL"}, {"measurement": "MIC", "setting": "Enterococcus faecalis 7", "value": 32, "unit": "µg/mL"}]}
{"smiles": "Cc1nc(NNC(=O)[C@H](CC2CCCC2)CN(O)C=O)c(F)c(N2CCN3CCOC[C@@H]3C2)n1", "note": "[[(2R)-2-(Cyclopentylmethyl)-3-(2-{5-fluoro-6-[(9aS)-hexahydropyrazino[2,1-c][1,4]oxazin-8(1H)-yl]-2-methyl-4-pyrimidinyl}hydrazino)-3-oxopropyl]hydroxyformamide]", "values": [{"measurement": "in vitro antibacterial activity (MIC and/or MIC90) and/or in vivo efficacy", "setting": "panel of 12 strains", "value": "greater in vitro antibacterial activity (MIC and/or MIC90) and/or better in vivo efficacy"}]}
